Assay results as given in patent US6537670B1, “Bis(alkyleneoxybenzophenone) ultraviolet light absorbers” (Cytec Technology Corp., priority 2000, dated 2003).

Key:
[1] = Volatility of UV absorbers: Thermogravimetric Analysis (TGA) T-10% values; type: physicochemical; conditions: for T-10% (TGA, temperature required for 10% of the material to volatilize): Thermogravimetric Analysis
From the text: One approach that has been taken to reduce the loss of absorbers from polymeric substrates has been to increase their molecular weight, either by using an absorber with attached high molecular weight groups, or by adding a group which will bind two or more absorbing nuclei in the same molecule, thus increasing molecular weight. U.S. Pat. No. 4,278,589 provides an example of the former approach, and describes benzotriazoles with large groups attached at the 3- and 5-positions. Of the latter approach, benzophenones, benzotriazoles and other molecules have been dimerized to reduce volatility. U.S. Pat. Nos. 5,108,835 and 4,948,666 describe articles with capstock layers stabilized by 2-hydroxyphenylbenzotriazoles which are bridged by various groups. One structure encompassed by the description is a 2-hydroxyphenylbenzotriazole bridged by a methylene group in the 3-position. These materials have relatively low volatility, as measured by the high temperature required for 10% of the materials to volatilize during Thermogravimetric Analysis. This temperature, known as the TGA T-10% value, is approximately 365° C. for the methylenebis{(5-tert-octyl-2-hydroxyphenyl)benzotriazole} known commercially as LA-31, Mixxim BB-100 or Tinuvin 360 (supplied by Asahi Denka, Fairmount Chemical and Ciba Specialty Chemicals, respectively), versus a TGA T-10% value of 245° C. for the non-dimerized (5-tert-octyl-2-hydroxyphenyl)benzotriazole known commercially as CYASORB® UV-5411. Also described have been 2,4-dihydroxybenzophenones which are dimerized by attachment through the 4-oxygen by an ether bond to two carbons of an aliphatic group. Compounds of this type have been described in U.S. Pat. Nos. 3,580,927 and 3,666,713 and CZ Appl. 135,115, JP Sho 47-48888, JP Sho 44-26456 and GB 1, 296,240. Capstock articles stabilized by some of these compounds, and a method for preparing the same are described in U.S. Pat. Nos. 5,445,872 and 5,306,456. Descriptions of benzotriazoles and benzophenones bridged by attachment of other groups may be found in U.S. Pat. Nos. 5,589,529 and 4,859,726 (for benzotriazoles) and JP Sho 57-12643 (for benzophenones). Many of the compounds described above, while solving the problem of volatility, have other limitations, including low solubility and high initial color when processed into the plastic substrate.
Volatility of UV Absorbers
Thermogravimetric Analysis (TGA) T-10% Values

[2] = Weathering resistance of polycarbonate plaques, 12-Month Florida Data; conditions: for % Weathering Resistance: 0.35% additive in Lexan 121 PC, 12-Month Florida Data, [1-YI(additive)YI of Blank] × 100
Procedure: The performance of the additives was evaluated in comparison to the control (no stabilizer) by compounding into polycarbonate and studying the properties of the compounded plaques. Polycarbonate plaques were prepared by: (1) dry blending the additives at 0.35 weight % with GE Lexan 121-112 polycarbonate (2) extruding the blend in a Haake torque rheometer base using a 0.75 inch 25:1 single screw extruder −4 zone, single pass, at 50-65 RPM speed, with zone 1, zone 2, zone 3, and zone 4 temperatures at 265, 265, 270 and 275° C., respectively, (3) pulling through a water bath, (4) drying, (5) pelletizing, (6) redrying at 120° C. for 4-48 hours in a forced air oven, (7) injection molding in an Arburg ‘Allrounder’ hydraulic injection molder (2×2.5 0.100″ plaques). Temperatures used were as follows: nozzle, 275° C., nozzle side, 280° C., middle, 275° C., feed, 266° C., mold, 95° C. The plaques were irradiated in a Xenon Arc Weatherometer as described by ASTM G-26 Standard using Test Method B with alternate exposure to light and darkness and an intermittent exposure to water spray maintaining an atmosphere temperature of 63±3° C. and a relative humidity of 30±5% (Miami, Fla. conditions). Color (YI) was determined with a Macbeth Color Eye […] under Lab conditions with illuminate C, 2° observer, specular component excluded, and UV component included. Hydrolytic testing was performed by heating plaques with water at 120° C. for 6 hours in an All American Electric Pressure Sterilizer, Model No. 25×, measuring YI before and after treatment.
% Weathering Resistance of Plaques (0.35% Additive in Lexan® 121 PC)

[3] = Capstock weathering: Delta YI after xenon-arc weatherometer exposure; conditions: 7% in Capstock PC-Lexan 105
Procedure: The performance of the compounds was evaluated in comparison to the control (no stabilizer) in a polycarbonate thin film laminated to an unstabilized polycarbonate plaque. The films were prepared by (1) dry blending the additives at 7 wt. % with Lexan 105 virgin flake and 0.1% Mark 2112 phosphite, (2) extruding the blend in a Haake torque rheometer base equipped with a 0.75 inch 25:1 single mixing screw extruder −4 zone, single pass at 55-65 rpm speed, with zone 1, zone 2, zone 3, and zone 4 temperatures at 246, 265, 295, and 304° C., respectively, (3) pulling through a water bath, (4) drying, (5) pelletizing, (6) redrying at 120° C. for 4-48 hours in a forced air oven, and (7) compression molding from compounded pellets into 2 mil films at 300° C. using a 30 second dwell hold without pressure, and a 30-second dwell hold with 35 kpsi pressure. […] The laminated sample plaques were exposed in the xenon-arc weatherometer as determined by ASTM G-26 Standard using Test Method B with alternate exposure to light and darkness and an intermittent exposure to water spray maintaining an atmosphere temperature of 63±3° C. and a relative humidity of 30±5% (Miami, Fla. conditions). Color (YI) was determined with a Macbeth Color Eye Colorimeter under Lab conditions with illuminate C, 2° observer, specular component excluded, and UV component included. […]

[4] = Solubility of compounds in organic solvents; conditions: 25° C.

Row | SMILES | T-10% (TGA, temperature required for 10% of the material to volatilize) [1] [°C] | TGA T-10% value [1] | Volatility (in words) ([1]; TGA, compared with non-dimerized counterpart) | % Weathering Resistance [2] [%] | Stability imparted to the polycarbonate system (in words) ([2]; 0.35% in Lexan 121 PC) | Stability imparted (in words) [3] | Solubility in 2-Butanone [4] [g/100 g solvent] | Solubility in Toluene [4] [g/100 g solvent] | Solubility characteristics (in words) ([4]; organic solvents)
1 | O=C(c1ccccc1)c1ccc(OCCO)cc1O [Compound B, 2-hydroxy-4-(hydroxyethoxy)benzophenone] | 257 | – | – | – | – | – | – | – | –
2 | CC(C)(C)CC(C)(C)c1ccc(O)c(-n2nc3ccccc3n2)c1 [Compound A, 2-(2′-hydroxy-5′-(1,1,3,3-tetramethylbutyl)phenyl)benzotriazole] | 245 | 245 °C | – | – | – | – | – | – | –
3 | O=C(OCCOc1ccc(C(=O)c2ccccc2)c(O)c1)OCCOc1ccc(C(=O)c2ccccc2)c(O)c1 [Compound D, {2-(3′-hydroxy-4′-benzoylphenoxy)ethyl}carbonate] | 350 | – | lower volatility than its non-dimerized counterpart | 71 | excellent stability | excellent stability | 2.69 | 1.26 | excellent solubility characteristics
4 | O=C(c1ccccc1)c1ccc(OCCCCCCOc2ccc(C(=O)c3ccccc3)c(O)c2)cc1O [Compound E, 1,6-bis(3′hydroxy-4′-benzoylphenoxy)hexane] | 357 | – | – | 69 | – | – | 0.37 | 0.52 | –
5 | CC(C)(c1ccccc1)c1cc(-n2nc3ccccc3n2)c(O)c(C(C)(C)c2ccccc2)c1 [Compound C, 2-(3′,5′-bis(α,α-dimethylbenzyl)-2′hydroxyphenyl)benzotriazole] | 312 | – | – | 71 | – | – | – | – | –
6 | CC(C)(C)CC(C)(C)c1cc(Cc2cc(C(C)(C)CC(C)(C)C)cc(-n3nc4ccccc4n3)c2O)c(O)c(-n2nc3ccccc3n2)c1 [Compound F] | – | approximately 365 °C | – | 59 | – | – | – | – | –
